Key:
[1] = tested on: E. coli, methicillin-resistant Staphylococcus aureus, Staphylococcus epidermidis and Candida albicans; details: cited from earlier work
[2] = tested on: Escherichia coli and Staphylococcus aureus; experiment: Antimicrobial activity assay-1, colony-forming units (CFU) assay; type: cell-based; details: for reduction of bacteria (colony-forming units): 50-100 μg/ml peptide, 37° C. for 2-4 hours, 10 mM sodium phosphate buffer/10 mM NaCl pH 7.0
Experimental: Antimicrobial assays were performed using the colony-forming units (CFU) assay as previously described. The antibacterial activity of DCD-derived peptides was tested against the following bacterial strains: Escherichia coli and Staphylococcus aureus. Bacterial cultures were grown to mid-exponential growth phase and washed three times with 10 mM sodium phosphate buffer/10 mM NaCl (pH 7.0). Bacterial concentration was estimated photometrically at 600 nm. Absorbance of 1.0 corresponded to 8.56×10^8/ml for E. coli, 1.97×10^8/ml for S. aureus.
After dilution to a concentration of 10^6 CFU/ml, 10 μl of the dilutions were incubated at 37° C. for 2-4 hours with the respective peptide diluted in water in a total volume of 30 μl in 10 mM sodium phosphate buffer containing 10 mM NaCl (pH 7.0). After incubation, cells were diluted 1:100 in 10 mM sodium phosphate buffer containing 10 mM NaCl (pH 7.0) and 90 μl of the diluted bacterial suspension were plated in triplicates on blood agar. Bacterial colonies were counted after incubation for 18-24 hours at 37° C. The antimicrobial activity was calculated using [(cell survival after peptide incubation)/(cell survival in buffer without peptide)×100]. The LC90 describes the lethal concentration of the current peptide in μg/ml or M which leads to 90% reduction of colony-forming units compared to the buffer control. The assay was carried out with 50-100 μg/ml DCD1L and DCD1.

[3] = tested on: Escherichia coli, Staphylococcus aureus, and Micrococcus luteus; experiment: Antimicrobial activity assay-2, zone of inhibition on LB agar; type: cell-based; details: peptide in 40% ACN/0.06% FA spotted in 10 μl on LB agar, 37° C. over night; FIG. 4 against S. aureus
Experimental: DCD1 was dissolved in 0.06% FA (2-5) or 40% ACN/0.06% FA (7-10). 1. 0.06% FA; 2. 5 μg DCD1; 3. 10 μg DCD1; 4. 30 μg DCD1; 5. 60 μg DCD1; 6.40% ACN/0.06% FA; 7. 5 μg DCD1; 8. 10 μg DCD1; 9. 30 μg DCD1; 10. 60 μg DCD1.
(§1) The antimicrobial activity of DCD1 and DCD1L peptides were tested against the following bacterial strains: Escherichia coli, Staphylococcus aureus, and Micrococcus luteus, isolated from skin. Bacterial cultures were grown to mid-exponential growth phase and bacterial concentration was estimated photometrically at 578 nm. Absorbance of 1.0 corresponded to 8.56×10^8/ml for E. coli, 1.97×10^8/ml for S. aureus. After dilution to a concentration of OD578nm 0.01 (˜10^6 CFU/ml), 100 μl of the cells were plated on LB agar. Afterwards different concentrations of the peptide dissolved in 40% ACN/0.06% FA were spotted on the plates in a total volume of 10 μl. As control 10 μl of 40% ACN/0.06% FA was used. The plates were incubated at 37° C. over night. After incubation the zone of inhibition was determined and the antimicrobial activity was calculated in dependence on the peptide concentration.

[4] = design: species or system human; details: in vivo
Experimental: Line 1-3: DCD1L dissolved in 300 mM NaCl, 10 mM NaH2PO4, pH 4.0 and incubated on skin for 0, 2 and 4 hours; Line 4-6: DCD1L dissolved in 300 mM NaCl, 10 mM NaH2PO4, pH 6.5 and incubated on skin for 0, 2 and 4 hours; […] and incubated on skin for 0, 2 and 4 hours. As controls are the recombinantly produced DCD1 and DCD1L peptides.
(A) 2 h, (B) 4 h, (C) 19 h. A total ion count chromatogram […] is shown in black and two single ion chromatograms for m/z 785 and m/z 805 corresponding to DCD1 and DCD1L respectively are shown.
For testing in vivo processing, the DCD1L peptide was dissolved in buffers (300 mM NaCl, 10 mM NaH2PO4) varying in pH (4, 6.5, and 9) and incubated on forearm. Therefore a construction composed of cardboard containing five ceramic rings was created. This construction was fixed on forearm with tape and ceramic rings were filled with 100 μl (˜140 μg) DCD1L. Finally an elastic foil was used to surround the whole construction. The incubation on skin varied from one to four hours before removing the samples from skin. Afterwards the peptide samples were analyzed by SDS PAGE (FIG. 5) and HPLC-MS (FIGS. 6 A and B) and also further incubated at room temperature in vitro (FIG. 6 C). […] This kind of processing was also analyzed by SDS PAGE and HPLC-MS.

S. aureus = experiment: Antimicrobial activity assay-2 with in vivo produced DCD1; type: cell-based; details: ~28 μg spotted, in 40% ACN/0.06% FA, S. aureus OD578nm 0.01 on LB agar
Experimental: DCD1 was dissolved in 40% ACN/0.06% FA. 1. 24 μg recombinantly produced DCD1 2. 24 μg in vivo produced DCD1; 3. 10 μl 40% ACN/0.06% FA;
as §1
To determine the antimicrobial activity, the in vivo produced DCD1 was lyophilized and dissolved in 40% ACN/0.06% FA. For testing its activity ˜28 μg DCD1 was spotted in LB agar plates containing 100 μl S. aureus (OD578nm 0.01) (see chapter Antimicrobial activity assay—2). As control 40% ACN/0.06% FA was spotted.

SEQ ID NO: 5: peptide of amino acids 63 to 85 of dermcidin (SSLLEKGLDGAKKAVGGLGKLGK; homo sapiens)
antimicrobial activity against several microorganisms [1]: have antimicrobial activity

DCD1L: 48 aa peptide, amino acids 63 to 110 of dermcidin, recombinantly produced (SSLLEKGLDGAKKAVGGLGKLGKDAVEDLESVGKGAVHDVKDVLDSVL; homo sapiens)
reduction of bacteria (colony-forming units) [2]: only the addition of DCD1 led to a reduction of diverse bacteria
antimicrobial activity (inventors' finding, summary statement) ([2]; no conditions given at the place): does not have antimicrobial activity
antimicrobial activity (zone of inhibition) [3]: only activity emanating from DCD1 was detectable
conversion of DCD1L into DCD1 ([4]; pH 4): always converted into DCD1 in a pH- and time-dependent manner
incubation time after which processing of DCD1L to DCD1 was complete ([4]; pH 9): 16 h
antimicrobial activity against several microorganisms [1]: have antimicrobial activity

DCD1: 47 aa peptide, amino acids 63 to 109 of dermcidin, recombinantly produced or formed from DCD1L on skin (SSLLEKGLDGAKKAVGGLGKLGKDAVEDLESVGKGAVHDVKDVLDSV; homo sapiens)
reduction of bacteria (colony-forming units) [2]: led to a reduction of diverse bacteria
antimicrobial activity (zone of inhibition) [3]: activity emanating from DCD1 was detectable
antimicrobial activity (inhibition zone) of DCD1 produced from DCD1L on skin (S. aureus): is antimicrobial active
antimicrobial activity against several microorganisms [1]: have antimicrobial activity

SEQ ID NO: 4: peptide of amino acids 63 to 87 of dermcidin (SSLLEKGLDGAKKAVGGLGKLGKDA; homo sapiens)
antimicrobial activity against several microorganisms [1]: have antimicrobial activity

Reference: patent publication US20120213764A1, “NOVEL METHOD FOR THE PRODUCTION OF A ANTIMICROBIAL PEPTIDE” (B.R.A.I.N. BIOTECHNOLOGY RESEARCH AND INFORMATION NETWORK AG, priority 2009, published 2012)
